In patent US20210317092A1 (BAYER PHARMA AKTIENGESELLSCHAFT, priority 2016, published 2021):
Read-outs that look alike come from different tables or passages of the source. Each block holds one compound with its values, some of them ahead of it.

Key:
[1] = target: T1, human Bradykinin B1 receptor (Homo sapiens, UniProt P46663); test: Calcium flux Assay (FLIPR) with recombinant CHO-K1 cells expressing human Bradykinin B1 receptor, in presence (hB1 IC50) or absence (hB1 free IC50) of 0.1% BSA; type: cell-based
T1 construct: host or cells: CHO-K1
T1 sequence (P46663 1-353): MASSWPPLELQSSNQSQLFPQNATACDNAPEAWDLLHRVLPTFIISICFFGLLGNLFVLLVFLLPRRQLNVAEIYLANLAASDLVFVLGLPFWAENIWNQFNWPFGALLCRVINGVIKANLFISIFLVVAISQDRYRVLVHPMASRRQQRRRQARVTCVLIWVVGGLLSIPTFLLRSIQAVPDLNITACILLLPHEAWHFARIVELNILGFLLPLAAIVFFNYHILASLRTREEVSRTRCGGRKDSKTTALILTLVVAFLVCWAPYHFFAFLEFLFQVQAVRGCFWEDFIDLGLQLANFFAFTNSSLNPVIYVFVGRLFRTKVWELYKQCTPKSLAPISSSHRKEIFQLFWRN

[2] = target: T2, native human Bradykinin B1 receptor (Homo sapiens, UniProt P46663); test: Calcium flux Assay (FLIPR) with human fibroblasts expressing Bradykinin B1 receptor (hB1 IMR-90); type: cell-based; details: IMR-90 human fibroblasts expressing native Bradykinin B1 receptor
T2 construct: which express native human Bradykinin B1 receptor after induction with human IL-10; Coriell Institute; host or cells: IMR-90 human foetal lung fibroblasts, cytokine-induced
T2 sequence (P46663 1-353): T1 sequence (P46663 1-353)
Summary of the method: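 IMR-90 human foetal lung fibroblasts induced with 0.35 ng/mL […] for 3 h, Fluo-4/AM-loaded, preincubated with compound (8 concentrations, triplicate) for 30 min at 28 °C, then challenged with Lys-(Des-Arg)-bradykinin at EC90. Ca2+ fluorescence was read at 538 nm; full inhibition set by 20 µM Lys-(Des-Arg-Leu)-bradykinin; IC50 derived.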

[3] = in absence of 0.1% BSA, read-out: hB1 free IC50
[4] = in presence of 0.1% BSA, read-out: hB1 IC50

Compound: Cc1ccc(-c2c(F)cc(NC(=O)C3(c4cccc(Cl)c4)CC3)cc2-c2nnn[nH]2)cn1 [Example 245, 1-(3-chlorophenyl)-N-[3-fluoro-4-(6-methylpyridin-3-yl)-5-(1H-tetrazol-5-yl)phenyl] cyclopropane-carboxamide]
IC50 [1, 3]: 8.11 nM
IC50 [2]: 7.85 nM

Compound: CCOc1ccc(-c2c(Cl)cc(NC(=O)C3(c4cccc(Cl)c4)CC3)cc2-c2nnn[nH]2)cn1 [Example 247, N-[3-chloro-4-(6-ethoxypyridin-3-yl)-5-(1H-tetrazol-5-yl)phenyl]-1-(3-chlorophenyl) cyclopropane-carboxamide]
IC50 [1, 3]: 20 nM
IC50 [1, 4]: 61.8 nM
IC50 [2]: 37.3 nM

Compound: O=C(Nc1ccc(-c2ccc(C(F)F)nc2)c(-c2nnn[nH]2)c1)C1(c2ccc(C(F)(F)F)cc2F)CC1 [Example 259, N-{4-[6-(difluoromethyl)pyridin-3-yl]-3-(1H-tetrazol-5-yl)phenyl}-1-[2-fluoro-4-(trifluoromethyl)phenyl]cyclopro-panecarboxamide]
IC50 [1, 3]: 3.52 nM
IC50 [2]: 10.6 nM

Compound: O=C(Nc1ccc(-c2ccc(C(F)F)nc2)c(-c2nnn[nH]2)c1)C1(c2cccc(Cl)c2)CC1 [Example 260, 1-(3-chlorophenyl)-N-{4-[6-(difluoromethyl)pyridin-3-yl]-3-(1H-tetrazol-5-yl)phenyl}cyclopro-panecarboxa-mide]
IC50 [1, 3]: 18.8 nM
IC50 [2]: 14.9 nM

Compound: O=C(Nc1ccc(-c2cnc(C(F)(F)F)nc2)c(-c2nnn[nH]2)c1)C1(c2ccc(C(F)(F)F)cc2F)CC1 [Example 261, 1-[2-fluoro-4-(trifluoromethyl)phenyl]-N-{3-(1H-tetrazol-5-yl)-4-[2-(trifluoromethyl)pyrimidin-5-yl]phenyl}cyclopro-panecarboxa-mide]
IC50 [1, 3]: 212 nM
IC50 [2]: 204 nM

Compound: Cc1cc(-c2c(F)cc(NC(=O)C3(c4ccc(C(F)(F)F)cc4F)CC3)cc2-c2nnn[nH]2)ccn1 [Example 265, N-[3-fluoro-4-(2-methylpyridin-4-yl)-5-(1H-tetrazol-5-yl)phenyl]-1-[2-fluoro-4-(trifluoromethyl)phenyl]cyclopro-panecarboxamide]
IC50 [1, 3]: 2.63 nM
IC50 [2]: 2.28 nM

Compound: O=C(Nc1cc(F)c(-c2ccnc(C(F)(F)F)c2)c(-c2nnn[nH]2)c1)C1(c2ccc(C(F)(F)F)cc2F)CC1 [Example 267, N-{3-fluoro-5-(1H-tetrazol-5-yl)-4-[2-(trifluoromethyl)pyridin-4-yl]phenyl}-1-[2-fluoro-4-(trifluoromethyl)phenyl]cyclopro-panecarboxamide]
IC50 [1, 3]: 19 nM
IC50 [2]: 48.3 nM

Compound: CC(F)(F)c1ccc(-c2ccc(NC(=O)C3(c4ccc(F)c(F)c4)CC3)cc2-c2nnn[nH]2)cn1 [Example 279, N-{4-[6-(1,1-difluoroethyl)py-ridin-3-yl]-3-(1H-tetrazol-5-yl)phenyl}-1-(3,4-difluorophenyl)cy-clopropanecar-boxamide]
IC50 [1, 3]: 23.1 nM
IC50 [2]: 16.3 nM

Compound: CC(F)(F)c1ccc(-c2ccc(NC(=O)C3(c4ccc(C(F)(F)F)cc4F)CC3)cc2-c2nnn[nH]2)cn1 [Example 281, N-{4-[6-(1,1-difluoroethyl)py-ridin-3-yl]-3-(1H-tetrazol-5-yl)phenyl}-1-[2-fluoro-4-(trifluoromethyl)phenyl]cyclopro-panecarboxamide]
IC50 [1, 3]: 6 nM
IC50 [2]: 6.17 nM

Compound: Cc1ccc(C2(C(=O)Nc3ccc(-c4ccc(C(F)(F)F)nc4)c(-c4nnn[nH]4)c3)CC2)c(F)c1 [Example 291, 1-(2-fluoro-4-methylphenyl)-N-{3-(1H-tetrazol-5-yl)-4-[6-(trifluoromethyl)pyridin-3-yl]phenyl}cyclopro-panecarboxa-mide]
IC50 [1, 3]: 22.5 nM
IC50 [2]: 2.36 nM

Compound: COc1cc(C(F)(F)F)ccc1C1(C(=O)Nc2ccc(-c3ccc(C(F)(F)F)nc3)c(-c3nnn[nH]3)c2)CC1 [Example 293, 1-[2-methoxy-4-(trifluoromethyl)phenyl]-N-{3-(1H-tetrazol-5-yl)-4-[6-(trifluoromethyl)pyridin-3-yl]phenyl}cyclopro-panecarboxa-mide]
IC50 [1, 3]: 297 nM
IC50 [2]: 266 nM

Compound: COc1cnccc1-c1ccc(NC(=O)C2(c3cccc(Cl)c3)CC2)cc1-c1nnn[nH]1 [Example 327, 1-(3-chlorophenyl)-N-[4-(3-methoxypyridin-4-yl)-3-(1H-tetrazol-5-yl)phenyl]cyclopro-panecarboxa-mide]
IC50 [1, 3]: 71.2 nM
IC50 [1, 4]: 70.9 nM
IC50 [2]: 164 nM

Further compounds by falling IC50 [1, 3], results first:

IC50 [1, 3]: 265 nM
IC50 [1, 4]: 161 nM
IC50 [2]: 108 nM
Compound: CC(C)(O)c1ccc(-c2ccc(NC(=O)C3(c4cccc(Cl)c4)CC3)cc2-c2nnn[nH]2)cn1 [Example 340, 1-(3-chlorophenyl)-N-{4-[6-(2-hydroxypropan-2-yl)pyridin-3-yl]-3-(1H-tetrazol-5-yl)phenyl}cyclopro-panecarboxa-mide]

IC50 [1, 3]: 259 nM
IC50 [1, 4]: 113 nM
IC50 [2]: 110 nM
Compound: CC(C)(O)Cc1ccc(-c2ccc(NC(=O)C3(c4cccc(Cl)c4)CC3)cc2-c2nnn[nH]2)cn1 [Example 343, 1-(3-Chlorophenyl)-N-{4-[6-(2-hydroxy-2-methylpropyl)pyridin-3-yl]-3-(1H-tetrazol-5-yl)phenyl}cyctopropanecarboxamide]

IC50 [1, 3]: 176 nM
IC50 [2]: 512 nM
Compound: O=C(Nc1cc(F)c(-c2ccnc(C(F)(F)F)c2)c(-c2nnn[nH]2)c1)C1(c2ccc(F)c(F)c2)CC1 [Example 244, 1-(3,4-difluorophenyl)-N-{3-fluoro-5-(1H-tetrazol-5-yl)-4-[2-(trifluoromethyl)pyridin-4-yl]phenyl} cyclopropane-carboxamide]

IC50 [1, 3]: 85 nM
IC50 [1, 4]: 90.5 nM
IC50 [2]: 70.3 nM
Compound: O=C(Nc1ccc(-c2ccc(N3CCOCC3)nc2)c(-c2nnn[nH]2)c1)C1(c2cccc(Cl)c2)CC1 [Example 329, 1-(3-chlorophenyl)-N-{4-[6-(morpholin-4-yl)pyridin-3-yl]-3-(1H-tetrazol-5-yl)phenyl}cyclopro-panecarboxa-mide]

IC50 [1, 3]: 35.2 nM
IC50 [2]: 47.3 nM
Compound: O=C(Nc1ccc(-c2ccnc(C(F)F)c2)c(-c2nnn[nH]2)c1)C1(c2ccc(C(F)(F)F)cc2F)CC1 [Example 258, N-{4-[2-(difluoromethyl)pyridin-4-yl]-3-(1H-tetrazol-5-yl)phenyl}-1-[2-fluoro-4-(trifluoromethyl)phenyl]cyclopro-panecarboxamide]

IC50 [1, 3]: 24.1 nM
IC50 [2]: 33.8 nM
Compound: O=C(Nc1ccc(-c2ccnc(C(F)(F)F)c2)c(-c2nnn[nH]2)c1)C1(c2ccc(OC(F)(F)F)cc2F)CC1 [Example 295, 1-[2-fluoro-4-(trifluoromethoxy)phenyl]-N-{3-(1H-tetrazol-5-yl)-4-[2-(trifluoromethyl)pyridin-4-yl]phenyl}cyclopro-panecarboxa-mide]

IC50 [1, 3]: 20 nM
IC50 [1, 4]: 22.3 nM
IC50 [2]: 45.2 nM
Compound: Cc1cncc(-c2ccc(NC(=O)C3(c4cccc(Cl)c4)CC3)cc2-c2nnn[nH]2)c1 [Example 326, 1-(3-chlorophenyl)-N-[4-(5-methylpyridin-3-yl)-3-(1H-tetrazol-5-yl)phenyl]cyclopro-panecarboxa-mide]

IC50 [1, 3]: 14.4 nM
IC50 [2]: 25.2 nM
Compound: CCOc1ccc(-c2c(Cl)cc(NC(=O)C3(c4cccc(Cl)c4F)CC3)cc2-c2nnn[nH]2)cn1 [Example 248, N-[3-chloro-4-(6-ethoxypyridin-3-yl)-5-(1H-tetrazol-5-yl)phenyl]-1-(3-chloro-2-fluoropheny) cyclopropane-carboxamide]

IC50 [1, 3]: 13.5 nM
IC50 [1, 4]: 77.9 nM
IC50 [2]: 127 nM
Compound: CCOc1ncc(-c2ccc(NC(=O)C3(c4cccc(Cl)c4)CC3)cc2-c2nnn[nH]2)cc1Cl [Example 328, N-[4-(5-chloro-6-ethoxypyridin-3-yl)-3-(1H-tetrazol-5-yl)phenyl]-1-(3-chlorophenyl)cy-clopropanecarbox-amide]

IC50 [1, 3]: 8.98 nM
IC50 [1, 4]: 20.4 nM
IC50 [2]: 6.03 nM
Compound: CCc1ccc(-c2ccc(NC(=O)C3(c4cccc(Cl)c4)CC3)cc2-c2nnn[nH]2)cn1 [Example 338, 1-(3-chlorophenyl)-N-[4-(6-ethylpyridin-3-yl)-3-(1H-tetrazol-5-yl)phenyl]cyclopro-panecarboxa-mide]

IC50 [1, 3]: 7.72 nM
IC50 [1, 4]: 34.5 nM
IC50 [2]: 33.8 nM
Compound: CCOc1ccc(-c2cc(O)c(NC(=O)C3(c4cccc(Cl)c4)CC3)cc2-c2nnn[nH]2)cn1 [Example 263, 1-(3-chlorophenyl)-N-[4-(6-ethoxypyridin-3-yl)-2-hydroxy-5-(1H-tetrazol-5-yl)phenyl]cyclopro-panecarboxa-mide]

IC50 [1, 3]: 5.96 nM
IC50 [2]: 6.13 nM
Compound: O=C(Nc1ccc(-c2ccc(C(F)(F)F)nc2)c(-c2nnn[nH]2)c1)C1(c2ccc(OC(F)(F)F)cc2F)CC1 [Example 294, 1-[2-fluoro-4-(trifluoromethoxy)phenyl]-N-{3-(1H-tetrazol-5-yl)-4-[6-(trifluoromethyl)pyridin-3-yl]phenyl}cyclopro-panecarboxa-mide]

IC50 [1, 3]: 3.45 nM
IC50 [2]: 2.38 nM
Compound: Cc1ccc(-c2c(F)cc(NC(=O)C3(c4ccc(C(F)(F)F)cc4F)CC3)cc2-c2nnn[nH]2)cn1 [Example 266, N-[3-fluoro-4-(6-methylpyridin-3-yl)-5-(1H-tetrazol-5-yl)phenyl]-1-[2-fluoro-4-(trifluoromethyl)phenyl]cyclopro-panecarboxamide]
